Values after ≈ are worked out from the molar mass of the structure shown. “Also recorded” adds a separate entry of the source. Like-named read-outs stand apart in the source and are kept apart here.
Columns and labels:
[1] = system: experimental mouse tumors; test: Experimental mouse tumors (overall); type: in vivo
Procedure: (§1) The test was carried out on groups of 10 mice (Swiss CD1). The compound under examination was administered intraperitoneally in varying doses to the test animals one day after intraperitoneal inoculation with 1×10^6 tumor cells/mouse.
(§2) The above compound was tested in comparison with adriamycin in several in vitro systems and experimental mouse tumors.

Ascites Sarcoma 180 = Ascites Sarcoma 180 in Swiss CD1 mice, i.p.; type: in vivo, mouse (Swiss CD1); conditions: i.p. one day after inoculation
Procedure: as §1, with “In Table 5 the activity of 3'-4'-epi-6'-hydroxyadriamycin on Ascites Sarcoma 180 in mice is reported. The test” for “The test”
The average survival time is given as percentage of the survival time of untreated animals, which is arbitrarily designated as 100%. The number of long term survivors (LTS) is also reported.

[2] = Proliferation of uninfected mouse embryo fibroblast (MEF) cultures (cytotoxic action); type: cell-based; conditions: mouse, mouse embryo fibroblasts
Procedure: (§3) The test compound was evaluated on mouse embryo fibroblast (MEF) cultures infected with MSV and on similar uninfected cultures. After a treatment of three days the inhibiting doses (ID50) were evaluated on cell proliferation in uninfected cultures (cytotoxic action) and on MSV foci formation in infected cultures (antiviral action).
^c inhibition of mouse embryo fibroblasts proliferation

several in vitro systems = test: Several in vitro systems, comparison with adriamycin; type: cell-based; conditions: Table 6
Procedure: as §2

solid sarcoma 180 = test: Solid sarcoma 180, treatment i.v. on days 1 to 5; type: in vivo, mouse
Description: (§4) Activity of 4-demethoxy-4'-epi-adriamycin on
solid sarcoma 180. Treatment i.v. on days 1 to 5.
Average data of 2 experiments.
^a Tumor weight on day 11, % over untreated controls.

Gross leukemia = test: Gross leukemia, treatment i.v. on days 1 to 3; type: in vivo, mouse
Description: On Gross leukemia (which is a systemic tumor transplanted i.v.), the increase in the life span of mice treated with the two compounds at equitoxic doses was similar.
Activity of 4-demethoxy-4'-epi-adriamycin
on Gross leukemia. Treatment i.v. on days
Average data of 2 experiments^a.
^a See legends to Table 7.

[3] = system: Moloney Sarcoma Virus (MSV); test: Formation of foci by Moloney Sarcoma Virus (MSV) in vitro (antiviral action); type: cell-based; conditions: Fibroblast, 72 h, read-out: ID50, inhibition of MSV foci formation
Procedure: as §3
^b inhibition of MSV foci formation

Hela cells = test: Cloning efficiency of Hela cells in vitro (colony inhibition); type: cell-based; conditions: Homo sapiens, Table 6, read-out: ID50, cloning efficiency of Hela cells
Procedure: After treatment for 2, 8 and 24 hours, Hela cells were seeded (200 cells per plate) and the number of colonies determined 8 days later. The inhibiting dose (ID50) represents the does which produces a 50% inhibition of colonies.
^a cloning efficiency of Hela cells

P 388 leukemia = test: Ascitic leukemia P 388, treatment i.p. on day 1; type: in vivo, mouse
Description: as §4
(§5) ascitic leukemias. Treatment i.p. on day 1.
(§6) ^a Median survival time, % over untreated controls
(§7) ^b Long term survivors at 60 days

L 1210 leukemia = test: Ascitic leukemia L 1210, treatment i.p. on day 1; type: in vivo, mouse
Description: as §4, §5, §6, §7

## COc1cccc2c1C(=O)c1c(O)c3c(c(O)c1C2=O)C[C@@](O)(C(=O)CO)C[C@@H]3O[C@H]1C[C@@H](N)[C@@H](O)[C@H](CO)O1 [3'-4'-epi-6'-hydroxyadriamycin, 3',4'-epi-6'-hydroxy-adriamycin]
[1]; mouse, in vivo
  activity in experimental tumors: active in experimental tumors
Ascites Sarcoma 180; 3 ng/Kg (so in the source)
  LTS (long term survivors): 1/10
  T/C % (average survival time, % of untreated): 123%
Ascites Sarcoma 180; 4.5 ng/Kg (so in the source)
  LTS (long term survivors): 2/10
  T/C % (average survival time, % of untreated): 226%
Ascites Sarcoma 180; 6.7 ng/Kg (so in the source)
  T/C % (average survival time, % of untreated): 138%
Ascites Sarcoma 180; 10.5 ng/Kg (so in the source)
  T/C % (average survival time, % of untreated): 138%

## C[C@@H]1O[C@@H](O[C@H]2C[C@](O)(C(=O)CO)Cc3c(O)c4c(c(O)c32)C(=O)c2ccccc2C4=O)C[C@H](N)[C@H]1O [4-demethoxy-4'-epi-adriamycin]
[1]; compared with adriamycin, all the systems tested
  antitumor activity: remarkable antitumor activity; also recorded: higher antitumor activity in mice, similar to adriamycin
[1]; compared with adriamycin, mice
  factor by which active doses are lower than those of adriamycin: 10 times
[2]
  CC50 at 72 h: < 0.003 ng/mL
Several in vitro systems
  in vitro activity compared with adriamycin: definitely more active than adriamycin
Solid sarcoma 180; 0.06 mg/Kg i.v. days 1 to 5
  T/C % (tumor weight on day 11, % over untreated controls): 87.3%
  Toxic deaths: 0/10
Solid sarcoma 180; 0.12 mg/Kg i.v. days 1 to 5
  T/C % (tumor weight on day 11, % over untreated controls): 85.1%
  Toxic deaths: 2/16
Solid sarcoma 180; 0.25 mg/Kg i.v. days 1 to 5
  T/C % (tumor weight on day 11, % over untreated controls): 41.9%
  Toxic deaths: 4/19
Solid sarcoma 180; 0.5 mg/Kg i.v. days 1 to 5
  Toxic deaths: 9/9
Solid sarcoma 180; equitoxic doses
  inhibition of tumor growth on the eleventh day vs adriamycin: slightly lower than that of adriamycin
Gross leukemia; 0.35 mg/Kg i.v. days 1 to 3
  LTS (long term survivors): 2/20
  T/C % (median survival time, % over untreated controls): 153%
  Toxic deaths: 0/10
Gross leukemia; 0.45 mg/Kg i.v. days 1 to 3
  LTS (long term survivors): 0/20
  T/C % (median survival time, % over untreated controls): 196%
  Toxic deaths: 0/20
Gross leukemia; 0.55 mg/Kg i.v. days 1 to 3
  LTS (long term survivors): 0/10
  T/C % (median survival time, % over untreated controls): 186%
  Toxic deaths: 0/10
Gross leukemia; 0.6 mg/Kg i.v. days 1 to 3
  LTS (long term survivors): 0/10
  T/C % (median survival time, % over untreated controls): 214%
  Toxic deaths: 1/10
Gross leukemia; 0.65 mg/Kg i.v. days 1 to 3
  LTS (long term survivors): 0/10
  T/C % (median survival time, % over untreated controls): 207%
  Toxic deaths: 0/10
Gross leukemia; equitoxic doses
  increase in life span vs adriamycin: similar
[3]
  IC50: < 0.003 ng/mL
Hela cells; 2 (hours) treatment
  IC50: 0.35 ng/mL (≈ 0.682 nM)
Hela cells; 8 (hours) treatment
  IC50: 0.1 ng/mL (≈ 0.195 nM)
Hela cells; 24 (hours) treatment
  IC50: 0.03 ng/mL (≈ 0.0584 nM)
P 388 leukemia; 0.25 mg/Kg i.p. day 1
  LTS (long term survivors at 60 days): 0/10
  T/C % (median survival time, % over untreated controls): 143%
  Toxic deaths: 0/10
P 388 leukemia; 0.5 mg/Kg i.p. day 1
  LTS (long term survivors at 60 days): 1/10
  T/C % (median survival time, % over untreated controls): 162%
  Toxic deaths: 1/10
P 388 leukemia; 1 mg/Kg i.p. day 1
  LTS (long term survivors at 60 days): 0/10
  T/C % (median survival time, % over untreated controls): 162%
  Toxic deaths: 8/10
P 388 leukemia; P 388
  antitumor activity at the optimal (non-toxic) dose vs adriamycin: comparable to that of adriamycin
L 1210 leukemia; 0.25 mg/Kg i.p. day 1
  LTS (long term survivors at 60 days): 0/11
  T/C % (median survival time, % over untreated controls): 155%
  Toxic deaths: 0/11
L 1210 leukemia; 0.5 mg/Kg i.p. day 1
  LTS (long term survivors at 60 days): 2/11
  T/C % (median survival time, % over untreated controls): 166%
  Toxic deaths: 0/11
L 1210 leukemia; 1 mg/Kg i.p. day 1
  LTS (long term survivors at 60 days): 0/11
  T/C % (median survival time, % over untreated controls): 133%
  Toxic deaths: 11/11
L 1210 leukemia; L 1210
  antitumor activity at the optimal (non-toxic) dose vs adriamycin: comparable to that of adriamycin

Reference: patent US4112076A, “Epi-daunomycin and epi-adriamycin compounds and method of use” (priority 1975, dated 1978)
